Laboratory results published in patent publication US12173018B2, “Penicillin-binding protein inhibitors” (priority 2018, dated 2024).
Values after ≈ are worked out from the molar mass of the structure shown.

How the values were obtained:
E. coli 901C = assay: microbe, parasite or virus in culture; assay type: cell-based; conditions: Escherichia coli; hyper-permeable E. coli 901C, broth microdilution; read-out: MIC E. coli 901C
Method in brief: (§1)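 Strains are tested by standard CLSI broth microdilution. Log-phase cells, diluted by OD600 to 5×10^5 CFU/mL, meet 2-fold compound series and incubate 16-20 hours at 37° C before the lowest growth-free concentration is recorded.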

E. coli AG100A = assay: microbe, parasite or virus in culture; assay type: cell-based; conditions: Escherichia coli, read-out: MIC E. coli AG100A
Method in brief: as §1

E. coli D22 = assay: microbe, parasite or virus in culture; assay type: cell-based; conditions: Escherichia coli; hyper-permeable E. coli D22, broth microdilution; read-out: MIC E. coli D22
Method in brief: as §1

K. pneumoniae SI-117 = assay: microbe, parasite or virus in culture; assay type: cell-based; conditions: Klebsiella pneumoniae, SI117, read-out: MIC K. pneumoniae SI-117
Method in brief: as §1

K. pneumoniae UMM = assay: microbe, parasite or virus in culture; assay type: cell-based; conditions: Klebsiella pneumoniae; K. pneumoniae UMM producing SHV-5 and KPC-2; read-out: MIC K. pneumoniae UMM
Method in brief: as §1

[1] = system: P. aeruginosa (ΔmexAB-oprM); assay: microbe, parasite or virus in culture; assay type: cell-based; conditions: Pseudomonas aeruginosa, read-out: MIC P. aeruginosa ΔmexAB-OprM
Method in brief: as §1

P. aeruginosa ATCC 35151 = assay: microbe, parasite or virus in culture; assay type: cell-based; conditions: Pseudomonas aeruginosa, ATCC35151; hyper-permeable P. aeruginosa ATCC 35151; read-out: MIC P. aeruginosa ATCC 35151
Method in brief: as §1

K. pneumoniae 848844 = assay: microbe, parasite or virus in culture; assay type: cell-based, Klebsiella pneumoniae; conditions: Klebsiella pneumoniae; K. pneumoniae 848844 producing SHV-11 and KPC-2; read-out: MIC K. pneumoniae 848844
Method in brief: as §1

P. aeruginosa PAO1 = assay: Broth microdilution MIC, P. aeruginosa PAO1; assay type: cell-based; conditions: Pseudomonas aeruginosa; P. aeruginosa PAO1, broth microdilution; read-out: MIC P. aeruginosa PAO1
Method in brief: as §1

A. baumannii ATCC 19606 = assay: Broth microdilution MIC, A. baumannii ATCC 19606; assay type: cell-based; conditions: Acinetobacter baumannii, ATCC19606; A. baumannii ATCC 19606, broth microdilution; read-out: MIC A. baumannii ATCC 19606
Method in brief: as §1

N. gonorrhoeae WHO F = assay: Liquid broth MIC, N. gonorrhoeae WHO F; assay type: cell-based; conditions: Neisseria gonorrhoeae; N. gonorrhoeae WHO F, liquid broth; read-out: Minimum Inhibitory Concentration, N. gonorrhoeae WHO F
Method in brief: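 Growth inhibition was scored by eye as the lowest compound concentration free of bacterial growth. Cultures from Kellogg's-supplemented GC agar, diluted to 5×10^5 CFU/mL, were exposed to serially diluted compound for 40-42 h at 36° C under 5% CO2.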

| SMILES | MIC (E. coli 901C) [µg/mL] | MIC (E. coli AG100A) [µg/mL] | MIC (E. coli D22) [µg/mL] | MIC (K. pneumoniae SI-117) [µg/mL] | MIC (K. pneumoniae UMM) [µg/mL] | MIC [1] [µg/mL] | MIC (P. aeruginosa ATCC 35151) [µg/mL] | MIC (K. pneumoniae 848844) [µg/mL] | MIC (P. aeruginosa PAO1) [µg/mL] | MIC (A. baumannii ATCC 19606) [µg/mL] | MIC (N. gonorrhoeae WHO F) [µg/mL] |
| --- | --- | --- | --- | --- | --- | --- | --- | --- | --- | --- | --- |
| CCN1CCN(C(=O)NC(C(=O)N[C@H]2Cc3cccc(C(=O)O)c3OB2O)c2ccc(S(N)(=O)=O)c(F)c2)C(=O)C1=O (stereo partly drawn) [Example 210, (3R)-3-(2-(4-ethyl-2,3-dioxopiperazine-1-carboxamido)-2-(3-fluoro-4-sulfamoylphenyl)acetamido)-2-hydroxy-3,4-dihydro-2H-benzo[e][1,2]oxaborinine-8-carboxylic acid] | < 0.25 | 2 to 4 | 2 to 4 | > 128 | 32 to 64 | 2 to 4 | 0.5 to 1 | > 128 | > 128 | > 128 | < 0.125 |
| NS(=O)(=O)c1ccc(C(NC(=O)N2CCN(CCF)C(=O)C2=O)C(=O)N[C@H]2Cc3ccc(F)c(C(=O)O)c3OB2O)cc1 (stereo partly drawn) [Example 182, (3R)-7-fluoro-3-(2-(4-(2-fluoroethyl)-2,3-dioxopiperazine-1-carboxamido)-2-(4-sulfamoylphenyl)acetamido)-2-hydroxy-3,4-dihydro-2H-benzo[e][1,2]oxaborinine-8-carboxylic acid] | 0.5 to 1 | 32 to 64 | 2 to 4 | > 128 | 32 to 64 | 8 to 16 | 0.5 to 1 | > 128 | > 128 | > 128 | 1 to 2 (≈ 1.6 to 3.21 µM) |
| CCN1CCN(C(=O)N[C@@H](C(=O)N[C@H]2Cc3ccc(F)c(C(=O)O)c3OB2O)c2ccc(O)c(F)c2)C(=O)C1=O [Example 161, (R)-3-((R)-2-(4-ethyl-2,3-dioxopiperazine-1-carboxamido)-2-(3-fluoro-4-hydroxyphenyl)acetamido)-7-fluoro-2-hydroxy-3,4-dihydro-2H-benzo[e][1,2]oxaborinine-8-carboxylic acid] | 0.5 to 1 | 32 to 64 | 2 to 4 | > 128 | 32 to 64 | 8 to 16 | < 0.25 | > 128 | > 128 | > 128 | < 0.125 |
| CCN1CCN(C(=O)NC(C(=O)N[C@H]2Cc3ccc(F)c(C(=O)O)c3OB2O)c2ccc(S(N)(=O)=O)cc2)C(=O)C1=O (stereo partly drawn) [Example 181, (3R)-3-(2-(4-ethyl-2,3-dioxopiperazine-1-carboxamido)-2-(4-sulfamoylphenyl)acetamido)-7-fluoro-2-hydroxy-3,4-dihydro-2H-benzo[e][1,2]oxaborinine-8-carboxylic acid] | 0.5 to 1 | 32 to 64 | 8 to 16 | > 128 | 32 to 64 | 8 to 16 | 0.5 to 1 | 32 to 64 | > 128 | > 128 | 0.25 to 0.5 (≈ 0.413 to 0.826 µM) |
| NCCN1CCN(C(=O)N[C@@H](C(=O)N[C@H]2Cc3ccc(F)c(C(=O)O)c3OB2O)c2ccc(O)c(O)c2Cl)C(=O)C1=O [Example 227, (R)-3-((R)-2-(4-(2-aminoethyl)-2,3-dioxopiperazine-1-carboxamido)-2-(2-chloro-3,4-dihydroxyphenyl)acetamido)-7-fluoro-2-hydroxy-3,4-dihydro-2H-benzo[e][1,2]oxaborinine-8-carboxylic acid] | < 0.25 | < 0.25 | 0.5 to 1 | 0.5 to 1 | 0.5 to 1 | < 0.25 | < 0.25 | 0.5 to 1 | < 0.25 | < 0.25 | 1 to 2 (≈ 1.65 to 3.29 µM) |
| CCN1CCN(C(=O)NC(C(=O)N[C@H]2Cc3ccc(F)c(C(=O)O)c3OB2O)c2cc(O)c(O)cc2F)C(=O)C1=O (stereo partly drawn) [Example 136, (3R)-3-(2-(4-ethyl-2,3-dioxopiperazine-1-carboxamido)-2-(2-fluoro-4,5-dihydroxyphenyl)acetamido)-7-fluoro-2-hydroxy-3,4-dihydro-2H-benzo[e][1,2]oxaborinine-8-carboxylic acid] | 0.5 to 1 | 2 to 4 | 2 to 4 | > 128 | 8 to 16 | 0.5 to 1 | 0.5 to 1 | 32 to 64 | 8 to 16 | 2 to 4 | 1 to 2 (≈ 1.74 to 3.47 µM) |
| CCN1CCN(C(=O)N[C@H](C(=O)N[C@H]2Cc3ccc(F)c(C(=O)O)c3OB2O)c2ccc(O)c(O)c2Cl)C(=O)C1=O [Example 188, (R)-3-((S)-2-(2-chloro-3,4-dihydroxyphenyl)-2-(4-ethyl-2,3-dioxopiperazine-1-carboxamido)acetamido)-7-fluoro-2-hydroxy-3,4-dihydro-2H-benzo[e][1,2]oxaborinine-8-carboxylic acid] | 2 to 4 | 8 to 16 | 8 to 16 | 32 to 64 | > 128 | 0.5 to 1 | 0.5 to 1 | 8 to 16 | 8 to 16 | 32 to 64 | 4 to 8 (≈ 6.75 to 13.5 µM) |
| CC(=O)NCCN1CCN(C(=O)NC(C(=O)N[C@H]2Cc3cccc(C(=O)O)c3OB2O)c2ccc(O)c(O)c2Cl)C(=O)C1=O (stereo partly drawn) [Example 228, (3R)-3-(2-(4-(2-acetamidoethyl)-2,3-dioxopiperazine-1-carboxamido)-2-(2-chloro-3,4-dihydroxyphenyl)acetamido)-2-hydroxy-3,4-dihydro-2H-benzo[e][1,2]oxaborinine-8-carboxylic acid] | 0.5 to 1 | 0.5 to 1 | 2 to 4 | 2 to 4 | 0.5 to 1 | < 0.25 | < 0.25 | 2 to 4 | 0.5 to 1 | 0.5 to 1 | 4 to 8 (≈ 6.33 to 12.7 µM) |
| O=C(O)c1c(F)ccc2c1OB(O)[C@@H](NC(=O)C(NC(=O)N1CCN(CCF)C(=O)C1=O)c1ccc(O)c(O)c1Cl)C2 (stereo partly drawn) [Example 131] | 0.5 to 1 | 2 to 4 | 2 to 4 | 8 to 16 | 8 to 16 | < 0.25 | < 0.25 | 32 to 64 | 0.5 to 1 | 8 to 16 | 0.25 to 0.5 (≈ 0.409 to 0.819 µM) |
| CS(=O)(=O)NCCN1CCN(C(=O)NC(C(=O)N[C@H]2Cc3cccc(C(=O)O)c3OB2O)c2ccc(O)c(O)c2Cl)C(=O)C1=O (stereo partly drawn) [Example 229, (3R)-3-(2-(2-chloro-3,4-dihydroxyphenyl)-2-(4-(2-(methylsulfonamido)ethyl)-2,3-dioxopiperazine-1-carboxamido)acetamido)-2-hydroxy-3,4-dihydro-2H-benzo[e][1,2]oxaborinine-8-carboxylic acid] | 0.5 to 1 | 0.5 to 1 | 2 to 4 | 8 to 16 | 8 to 16 | < 0.25 | < 0.25 | 2 to 4 | 2 to 4 | < 0.25 | 4 to 8 (≈ 5.99 to 12 µM) |
| CCN1CCN(C(=O)NC(C(=O)N[C@H]2Cc3cccc(C(=O)O)c3OB2O)c2nc(N)sc2F)C(=O)C1=O (stereo partly drawn) [Example 205, (3R)-3-(2-(2-amino-5-fluorothiazol-4-yl)-2-(4-ethyl-2,3-dioxopiperazine-1-carboxamido)acetamido)-2-hydroxy-3,4-dihydro-2H-benzo[e][1,2]oxaborinine-8-carboxylic acid] | < 0.25 | 0.5 to 1 | 0.5 to 1 | 32 to 64 | > 128 | 2 to 4 | < 0.25 | 32 to 64 | > 128 | 32 to 64 | < 0.125 |
| NCCN1CCN(C(=O)N[C@@H](C(=O)N[C@H]2Cc3ccc(F)c(C(=O)O)c3OB2O)c2ncc(O)cc2F)C(=O)C1=O [Example 230, (R)-3-((R)-2-(4-(2-aminoethyl)-2,3-dioxopiperazine-1-carboxamido)-2-(3-fluoro-5-hydroxypyridin-2-yl)acetamido)-7-fluoro-2-hydroxy-3,4-dihydro-2H-benzo[e][1,2]oxaborinine-8-carboxylic acid] | 0.5 to 1 | 2 to 4 | 2 to 4 | 8 to 16 | 8 to 16 | 2 to 4 | < 0.25 | 32 to 64 | 32 to 64 | > 128 | 0.25 to 0.5 (≈ 0.434 to 0.868 µM) |
